The target of experiment [1] is T1, human ferroportin (SLC40A1) (Homo sapiens, UniProt Q9NP59).
T1 sequence (Q9NP59 1-571): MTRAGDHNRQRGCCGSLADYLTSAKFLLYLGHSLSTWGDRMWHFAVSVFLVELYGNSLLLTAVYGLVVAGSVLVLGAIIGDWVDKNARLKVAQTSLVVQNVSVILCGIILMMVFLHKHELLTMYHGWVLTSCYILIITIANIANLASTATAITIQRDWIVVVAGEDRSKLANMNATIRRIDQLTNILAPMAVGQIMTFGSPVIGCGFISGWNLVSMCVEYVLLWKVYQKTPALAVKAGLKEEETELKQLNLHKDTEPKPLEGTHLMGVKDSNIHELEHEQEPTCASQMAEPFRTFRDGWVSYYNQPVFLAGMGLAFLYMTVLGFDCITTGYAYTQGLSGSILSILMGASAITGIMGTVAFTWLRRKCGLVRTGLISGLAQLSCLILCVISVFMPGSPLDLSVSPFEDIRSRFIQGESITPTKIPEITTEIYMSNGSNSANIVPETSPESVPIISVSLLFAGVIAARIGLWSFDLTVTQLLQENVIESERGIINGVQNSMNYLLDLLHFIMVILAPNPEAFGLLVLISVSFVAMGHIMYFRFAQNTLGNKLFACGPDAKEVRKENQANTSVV
Kind of experiment: FPN activity assay: internalization/degradation of ferroportin-GFP in stably transfected HEK293 cells (decrease in GFP fluorescence). In kind it is cell-based. Particulars: compound incubated at least 18 hours. In outline: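 HEK293 cells stably expressing human ferroportin C-terminally fused to GFP were exposed to peptides for at least 18 h, at most 24 h. Internalization/degradation read as loss of GFP fluorescence; EC50 derived. Retro-inverse mini-hepcidin peptides used as control standards.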

In a further experiment the target is T2, ferroportin (Homo sapiens, UniProt Q9NP59).
T2 sequence (Q9NP59 1-571): T1 sequence (Q9NP59 1-571)
The experiment in a line: T47D cell-based ferroportin internalization assay in presence of 0.5% mouse serum albumin (MSA). Particulars: T47D cells. In outline: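 T47D cells exposed 1 hr to peptide series (10 points from ~5 μM) premixed 30 min at room temperature with 0.5% mouse serum albumin, then 200 nM AF647-labelled ferroportin-binding peptide for 2 hr. Flow cytometry MFI of live singlets; IC50 by 4-parameter fit.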

Numbered stars: 1 amine (or outer) side, 2 acyl side, 3 side chain; on linkers, the order of the positions; unused ones are H or OH. Bridge positions count the residues as written; N and C are the ends. Square brackets hold non-standard residues; d marks the D form. Side chains are listed from the residue outwards. Peptide text beside a SMILES is read from it. * marks the point of attachment. Dip = N[C@H](C(=O)O)C(c1ccccc1)c1ccccc1; Hag = O=C([C@H](CCC=[*:3])N[*:1])[*:2]; Palmitoyl = CCCCCCCCCCCCCCCC(=O)*; tBuAla = CC(C)(C)C[C@H](N)C(=O)O; β3hF = N[C@H](CC(=O)O)Cc1ccccc1; Isovaleryl = CC(C)CC(=O)*; Ahx = NCCCCCC(=O)O

In the case of `CCCCCCCCCCCCCCCC(=O)NCCCCCC(=O)NCCCC[C@H](NC(=O)C[C@H](Cc1ccccc1)NC(=O)[C@@H]1CCCC=CCCC[C@H](NC(=O)CC(C)C)C(=O)N[C@@H]([C@@H](C)O)C(=O)N[C@@H](Cc2c[nH]cn2)C(=O)N[C@@H](C(c2ccccc2)c2ccccc2)C(=O)N2CCC[C@H]2C(=O)N[C@@H](C)C(=O)N[C@@H]([C@@H](C)CC)C(=O)N1)C(=O)N[C@H](CCCCN)C(N)=O` [Compd 28], the half-maximal inhibitory concentration (IC50) (in experiment [1]; at ferroportin) was 0.001 to 0.01 µM each time.
Take `CCCCCCCCCCCCCCCC(=O)NCCCCCC(=O)NCCCC[C@@H](C(=O)N[C@H](CCCCN)C(N)=O)N(C)C(=O)C[C@H](Cc1ccccc1)NC(=O)[C@@H]1CCC=CCC[C@H](NC(=O)CC(C)C)C(=O)N[C@@H]([C@@H](C)O)C(=O)N[C@@H](Cc2c[nH]cn2)C(=O)N[C@@H](C(c2ccccc2)c2ccccc2)C(=O)N2CCC[C@H]2C(=O)N[C@@H](C)C(=O)N[C@@H]([C@@H](C)CC)C(=O)N1` [Compd 55]: the half-inhibitory concentration (IC50) in experiment [1] fell in the range of 0.001 to 0.01 µM; at ferroportin it was 0.01 to 0.1 µM.
For `CCCCCCCCCCCCCCCC(=O)NCCCCCC(=O)NCCCC[C@H](NC(=O)[C@H](CC(C)(C)C)NC(=O)[C@@H]1CCC=CCC[C@H](NC(=O)CC(C)C)C(=O)N[C@@H]([C@@H](C)O)C(=O)N[C@@H](Cc2c[nH]cn2)C(=O)N[C@@H](C(c2ccccc2)c2ccccc2)C(=O)N2CCC[C@H]2C(=O)N[C@@H](C)C(=O)N[C@@H]([C@@H](C)CC)C(=O)N1)C(=O)N[C@H](CCCCN)C(N)=O` [Compd 64] (Isovaleryl-[Hag]TH[Dip]PAI[Hag][tBuAla]K([Ahx-Palmitoyl])[dK]-NH2; staple 1-8), the IC50 (in experiment [1]; at ferroportin) was 0.01 to 0.1 µM in each case.
`CCCCCCCCCCCCCCCC(=O)NCCCCCC(=O)NCCCC[C@H](NC(=O)C[C@H](Cc1ccccc1)NC(=O)[C@@H]1CCC=CCC[C@H](NC(=O)CC(C)C)C(=O)N[C@@H]([C@@H](C)O)C(=O)N[C@@H](Cc2c[nH]cn2)C(=O)N[C@@H](C(c2ccccc2)c2ccccc2)C(=O)N2CCC[C@H]2C(=O)N[C@@H](C)C(=O)N[C@@H]([C@@H](C)CC)C(=O)N1)C(=O)N[C@@H](C)C(N)=O` [Compd 48] (Isovaleryl-[Hag]TH[Dip]PAI[Hag][β3hF]K([Ahx-Palmitoyl])A-NH2; staple 1-8): the IC50 (in experiment [1]; on ferroportin) was 0.01 to 0.1 µM in each case.
For `CCCCCCCCCCCCCCCC(=O)NCCCCCC(=O)NCCCC[C@H](NC(=O)C[C@H](Cc1ccccc1)NC(=O)[C@@H]1CCCC=CCCC[C@@H](NC(=O)CC(C)C)C(=O)N[C@@H]([C@@H](C)O)C(=O)N[C@@H](Cc2c[nH]cn2)C(=O)N[C@@H](C(c2ccccc2)c2ccccc2)C(=O)N2CCC[C@H]2C(=O)N[C@@H](C)C(=O)N[C@@H]([C@@H](C)CC)C(=O)N1)C(=O)N[C@H](CCCCN)C(N)=O` [Compd 70], the half-inhibitory concentration (IC50) in experiment [1] was 0.01 to 0.1 µM; on ferroportin, 0.001 to 0.01 µM.
`CCCCCCCCCCCCCCCC(=O)NCCCCCC(=O)NCCCC[C@H](NC(=O)C[C@H](Cc1ccccc1)NC(=O)[C@@H]1CCC=CCC[C@H](NC(=O)CC(C)C)C(=O)N[C@@H]([C@@H](C)O)C(=O)N[C@@H](Cc2c[nH]cn2)C(=O)N[C@@H](C(c2ccccc2)c2ccccc2)C(=O)N2CCC[C@H]2C(=O)N[C@@H](C)C(=O)N[C@@H]([C@@H](C)CC)C(=O)N1)C(N)=O` [Compd 17]: the IC50 lay in the range of 0.01 to 0.1 µM in experiment [1] and 0.001 to 0.01 µM on ferroportin.
As for `CCCCCCCCCCCCCCCC(=O)NCCCCCC(=O)NCCCC[C@H](NC(=O)C[C@H](Cc1ccccc1)NC(=O)[C@@H]1CCCC=CCC[C@@H](NC(=O)CC(C)C)C(=O)N[C@@H]([C@@H](C)O)C(=O)N[C@@H](Cc2c[nH]cn2)C(=O)N[C@@H](C(c2ccccc2)c2ccccc2)C(=O)N2CCC[C@H]2C(=O)N[C@@H](C)C(=O)N[C@@H]([C@@H](C)CC)C(=O)N1)C(=O)N[C@H](CCCCN)C(N)=O` [Compd 67], the figures for the half-maximal inhibitory concentration (IC50) (in experiment [1]; on ferroportin) were 0.001 to 0.01 µM and 0.01 to 0.1 µM, respectively.

What is called IC50 is the concentration that inhibits the measured activity by half.
